Entries after “also recorded” stand apart in the source; their conditions may differ.
How the values were obtained:
3T3-L1 adipocytes = assay: Glucose uptake in 3T3-L1 adipocytes; type: cell-based; conditions: various insulin concentrations, with or without ST10
GLUT4 [1] = assay: GLUT4 on the surface of insulin-resistant adipocytes; type: cell-based; conditions: adipocytes made insulin resistant by insulin for 24 h, then insulin for 20 min with or without ST10
GLUT4 [2] = assay: GLUT4 at the surface of 3T3-L1 adipocytes, with or without insulin; type: cell-based; conditions: for effect on the effectiveness of insulin on GLUT4 translocation: 3T3-L1 adipocytes, 20 minutes, aminosteroid 50 μM, insulin 1 nM present or absent
Description: One of the key components in the insulin-induced uptake of sugar by myocytes and adipocytes is the GLUT4 glucose (sugar) transporter. When insulin binds to its receptor at the surface of these cells, or during a muscle contraction, intracellular signalling pathways are activated, resulting in the translocation of GLUT4 from its intracellular storage compartment to the plasma membrane, where it enables sugar to enter from the extracellular medium. GLUT4 therefore plays an important role in carbohydrate homeostasis and, consequently, in T2D. 3T3-L1 adipocytes are stimulated for 20 minutes with the aminosteroids (50 μM), in the presence or absence of insulin (1 nM), and are labelled for GLUT4 at the surface of the cells. The percentage of GLUT4 at the surface of the cells is then determined.

GLUT4 [3] = assay: Sensitivity of adipocytes to insulin (GLUT4 on the plasma membrane); type: cell-based; conditions: FIG. 3B
Method: The effect of insulin and of ST10 on the amount of GLUT4 on the plasma membrane was measured (FIG. 3A) and the sensitivity of the cells to insulin was calculated (FIG. 3B).

[4] = set-up: species or system mice; conditions: mouse, in vivo
Method: Healthy mice were treated in the same way as previously. A dose of insulin was injected into these mice (at t=0). The blood glucose level of the mice was measured until 120 minutes after the insulin injection. […] The treatment with the ST20 derivative therefore prolongs the effect of insulin.

Structure (SMILES) | glucose uptake in adipocytes (3T3-L1 adipocytes) | effect of insulin on GLUT4 on the surface of insulin-resistant cells (GLUT4 [1]) | effect on the effectiveness of insulin on GLUT4 translocation (GLUT4 [2]) | increase in GLUT4 at the surface of the plasma membrane (PM), ST10 versus trodusquemine (GLUT4 [2]; FIG. 1C) | sensitivity of the cells to insulin (GLUT4 [3]) | severe hypoglycaemia in the ITT [4]
CC(C)CCC[C@@H](C)[C@H]1CC[C@H]2[C@@H]3C[C@@H](NCCCNCCCCNCCCN)[C@H]4C[C@@H](O)CC[C@]4(C)[C@H]3CC[C@]12C [ST10, 6β-(spermine)cholestan-3β-ol] | increases glucose uptake in the adipocytes; also recorded: increased by ST10 for all the insulin concentrations tested | also increases the effect of the insulin | increases the effectiveness of insulin on GLUT4 translocation | greater in the presence of ST10 than in the presence of trodusquemine | increases the sensitivity of the cells to insulin | –
CC(C)CCC[C@@H](C)[C@H]1CCC2C3C[C@@H](NCCCCNCCCN)C4=C[C@@H](O)CC[C@]4(C)C3CC[C@@]21C (stereo partly drawn) [ST20, 6β-(spermidine)cholesten-3β-ol] | – | – | – | – | – | did not cause severe hypoglycaemia
CC(C)[C@@H](CC[C@@H](C)[C@H]1CC[C@H]2[C@@H]3[C@H](O)C[C@H]4C[C@@H](NCCCNCCCCNCCCN)CC[C@]4(C)[C@H]3CC[C@]12C)OS(=O)(=O)O [trodusquemine, reference compound] | – | – | not | – | – | –

Reference: patent US20140249122A1, “ANTI-DIABETIC AMINOSTEROID DERIVATIVES” (UNIVERSITE NICE SOPHIA ANTIPOLIS, priority 2011, published 2014)
